Literature values, collected in patent US20160303203A1, “COMPOSITIONS AND METHODS FOR THE TREATMENT OF WOUNDS” (priority 2013, published 2016).

Test system: diabetic ulcers
Conditions: patients with diabetic ulcers treated with phenytoin; control group 45 days

O=C1NC(=O)C(c2ccccc2)(c2ccccc2)N1 [phenytoin, 5.5-diphenyl-2,4-imidazolidinedione]
mean healing time: 21 days
